Test results from patent publication US20240350522A1, “HYGROMYCIN A FOR TREATMENT OF DISEASES AND INFECTIONS” (FLIGHTPATH BIOSCIENCES, INC., priority 2021, published 2024).
Like-named read-outs stand apart in the source and are kept apart here.

Tests used:
[1] = tested on: Parvimonas micra (ATCC 33270); test: MIC of Hyg A against P. micra; assay type: cell-based; conditions: ATCC33270
[2] = tested on: Parvimonas micra (ATCC 33270); test: MBC of Hyg A against P. micra; assay type: cell-based; conditions: for MBC: ATCC33270
F. nucleatum animalis = test: Kirby-Bauer diffusion assay; assay type: cell-based, Fusobacterium nucleatum; conditions: for zone of inhibition at 5 µg/disc / zone of inhibition at 10 µg/disc / zone of inhibition at 20 µg/disc / zone of inhibition at 40 µg/disc: Fusobacterium nucleatum, mean (SEM), read-out: size of zone inhibition (mm); for zone of inhibition at 5 µg/disc: Hyg A 5 μg per disc; for zone of inhibition at 10 µg/disc: Hyg A 10 μg per disc; for zone of inhibition at 20 µg/disc: Hyg A 20 μg per disc; for zone of inhibition at 40 µg/disc: Hyg A 40 μg per disc
Method: (§1) Three representatives of 6 subspecies of Fusobacterium nucleatum (F. nucleatum) for a total of 18 strains were tested in the experiment. The sub species and strains are described in Table 2.
(§2) All strains were verified by 16S V3/V6 sequence analysis prior to use. The methods described herein were performed in an anaerobic chamber at 37° C. All media and plates were degassed prior to use.
(§3) Hygromycin A (Hyg A) discs were prepared by solubilizing Hyg A in distilled water and sterile filtered. Clindamycin was used as a positive control. Defined amounts of hygromycin A (40, 20, 10 or 5 micrograms), clindamycin (2 micrograms) or sterile distilled water were absorbed onto Kirby-Bauer discs in a biosafety cabinet.
(§4) An overnight culture was grown in Wilkins-Chalgren (WC) broth and back-diluted 1:10 in fresh broth. When an OD 600 reading reached 0.5, 300 μL of the log phase culture was plated onto WC agar plates. The plates were sectioned into quadrants and a Kirby-Bauer (KB) disc impregnated with a defined amount of hygromycin A was placed in each quadrant. Plates were prepared thus in triplicate and the four amounts of hygromycin A were 40, 20 10 and 5 micrograms. The same volume of culture was spread on fourth plate sectioned into six sections for three positive and three negative controls. KB discs with water served as negative controls and KB discs impregnated with 2 micrograms of clindamycin served as positive controls. […] Table 3, Table 4, Table 5, Table 6, Table 7, Table 8 show the mean size of zone inhibitions for each of the subspecies tested using increasing concentrations of hygromycin A where the standard error of mean is represented in parenthesis.
(§5) The amount of hygromycin A was plotted against the size of the zone of inhibition for each strain tested.

F. nucleatum vincentii = test: Kirby-Bauer diffusion assay; assay type: cell-based, Fusobacterium nucleatum; conditions: for zone of inhibition at 5 µg/disc / zone of inhibition at 10 µg/disc / zone of inhibition at 20 µg/disc / zone of inhibition at 40 µg/disc: Fusobacterium nucleatum, mean (SEM), read-out: size of zone inhibition (mm); for zone of inhibition at 5 µg/disc: Hyg A 5 μg per disc; for zone of inhibition at 10 µg/disc: Hyg A 10 μg per disc; for zone of inhibition at 20 µg/disc: Hyg A 20 μg per disc; for zone of inhibition at 40 µg/disc: Hyg A 40 μg per disc
Method: as §1, §2, §3, §4, §5

F. nucleatum fusiforme = test: Kirby-Bauer diffusion assay; assay type: cell-based; conditions: Fusobacterium nucleatum, mean (SEM), read-out: size of zone inhibition (mm); for zone of inhibition at 5 µg/disc: Hyg A 5 μg per disc; for zone of inhibition at 10 µg/disc: Hyg A 10 μg per disc; for zone of inhibition at 20 µg/disc: Hyg A 20 μg per disc; for zone of inhibition at 40 µg/disc: Hyg A 40 μg per disc
Method: as §1, §2, §3, §4, §5

F. nucleatum nucleatum = test: Kirby-Bauer diffusion assay; assay type: cell-based; conditions: Fusobacterium nucleatum, strain 203L34, mean (SEM), read-out: size of zone inhibition (mm)
Method: as §1, §2, §3, §4, §5

[3] = strain 203C15, 42 mm = assigned maximum
[4] = strain 203L25, 42 mm = assigned maximum

CC(=O)[C@H]1O[C@@H](Oc2ccc(/C=C(\C)C(=O)N[C@@H]3[C@H](O)[C@@H](O)[C@H]4OCO[C@H]4[C@@H]3O)cc2O)[C@@H](O)[C@@H]1O [Hyg A, Hygromycin A] was tested, and the MIC ([1]; Parvimonas micra ATCC 33270, read-out: MIC) was 2 µg/mL, the MIC ([1]; Parvimonas micra, P. micra 33270, experiment 1, read-out: MIC (μg/ml) 1) was 2 µg/mL and the MIC ([1]; Parvimonas micra, P. micra 33270, experiment 2, read-out: MIC (μg/ml) 2) was 2 µg/mL. For the same molecule, the MBC ([2]; Parvimonas micra ATCC 33270, read-out: MBC) was > 10 µg/mL, the “type of effect (bactericidal/bacteriostatic)” value ([2]; P. micra) was “bacteriostatic” and the “MIC:MBC ratio” value ([2]; P. micra 33270) was >0.2. The MBC ([2]; Parvimonas micra, P. micra 33270, experiment 1, read-out: MBC (μg/ml) 1) was > 10 µg/mL, the MBC ([2]; Parvimonas micra, P. micra 33270, experiment 2, read-out: MBC (μg/ml) 2) was > 10 µg/mL and the zone of inhibition at 5 µg/disc (F. nucleatum animalis; strain 7_1) was 18.3 mm. It also gave a zone of inhibition at 10 µg/disc (F. nucleatum animalis; strain 7_1) of 18 mm, a zone of inhibition at 20 µg/disc (F. nucleatum animalis; strain 7_1) of 22.7 mm and a zone of inhibition at 40 µg/disc (F. nucleatum animalis; strain 7_1) of 24.3 mm. For the same molecule, the zone of inhibition at 5 µg/disc (F. nucleatum animalis; strain 218A8) was 19.7 mm, the zone of inhibition at 10 µg/disc (F. nucleatum animalis; strain 218A8) was 21.7 mm and the zone of inhibition at 20 µg/disc (F. nucleatum animalis; strain 218A8) was 29.7 mm. It also gave a zone of inhibition at 40 µg/disc (F. nucleatum animalis; strain 218A8, 42 mm = assigned maximum) of 42 mm, a zone of inhibition at 5 µg/disc (F. nucleatum animalis; strain CRC 7_3 JVN3C1) of 0 mm and a zone of inhibition at 10 µg/disc (F. nucleatum animalis; strain CRC 7_3 JVN3C1) of 0 mm. The zone of inhibition at 20 µg/disc (F. nucleatum animalis; strain CRC 7_3 JVN3C1) was 0 mm, the zone of inhibition at 40 µg/disc (F. nucleatum animalis; strain CRC 7_3 JVN3C1) was 0 mm and the “strain sensitivity in words” value (F. nucleatum animalis; strain CRC 7_3JVN3C1, 5-40 μg discs) was “fully resistant”. It also gave a zone of inhibition at 5 µg/disc (F. nucleatum vincentii; strain 3/1/36A2) of 19 mm, a zone of inhibition at 10 µg/disc (F. nucleatum vincentii; strain 3/1/36A2) of 21.3 mm and a zone of inhibition at 20 µg/disc (F. nucleatum vincentii; strain 3/1/36A2) of 24.7 mm. It also gave a zone of inhibition at 40 µg/disc (F. nucleatum vincentii; strain 3/1/36A2) of 27.7 mm, a zone of inhibition at 5 µg/disc (F. nucleatum vincentii; strain 215A9) of 0 mm and a zone of inhibition at 10 µg/disc (F. nucleatum vincentii; strain 215A9) of 0 mm. It also gave a zone of inhibition at 20 µg/disc (F. nucleatum vincentii; strain 215A9) of 0 mm, a zone of inhibition at 40 µg/disc (F. nucleatum vincentii; strain 215A9) of 0 mm and a zone of inhibition at 5 µg/disc (F. nucleatum vincentii; strain CC53) of 16.3 mm. The zone of inhibition at 10 µg/disc (F. nucleatum vincentii; strain CC53) was 21.3 mm, the zone of inhibition at 20 µg/disc (F. nucleatum vincentii; strain CC53) was 24 mm and the zone of inhibition at 40 µg/disc (F. nucleatum vincentii; strain CC53) was 27.3 mm. For the same molecule, the “strain sensitivity in words” value (F. nucleatum vincentii; strain 215A9, 5-40 μg discs) was “fully resistant”, the zone of inhibition at 5 µg/disc (F. nucleatum fusiforme; strain 203C15) was 18 mm and the zone of inhibition at 10 µg/disc (F. nucleatum fusiforme; strain 203C15) was 24 mm. For the same molecule, the zone of inhibition at 20 µg/disc (F. nucleatum fusiforme; [3]) was 42 mm, the zone of inhibition at 40 µg/disc (F. nucleatum fusiforme; [3]) was 42 mm and the zone of inhibition at 5 µg/disc (F. nucleatum fusiforme; strain 203L25) was 25 mm. For the same molecule, the zone of inhibition at 10 µg/disc (F. nucleatum fusiforme; strain 203L25) was 28.7 mm, the zone of inhibition at 20 µg/disc (F. nucleatum fusiforme; [4]) was 42 mm and the zone of inhibition at 40 µg/disc (F. nucleatum fusiforme; [4]) was 42 mm. The zone of inhibition at 5 µg/disc (F. nucleatum fusiforme; strain 203L30) was 22.3 mm, the zone of inhibition at 10 µg/disc (F. nucleatum fusiforme; strain 203L30) was 24.3 mm and the zone of inhibition at 20 µg/disc (F. nucleatum fusiforme; strain 203L30) was 28 mm. For the same molecule, the zone of inhibition at 40 µg/disc (F. nucleatum fusiforme; strain 203L30) was 30 mm, the zone of inhibition at 5 µg/disc (F. nucleatum nucleatum; Hyg A 5 μg per disc) was 24 mm and the zone of inhibition at 10 µg/disc (F. nucleatum nucleatum; Hyg A 10 μg per disc) was 30 mm. It also gave a zone of inhibition at 20 µg/disc (F. nucleatum nucleatum; Hyg A 20 μg per disc) of 39.7 mm.
